Experimental data reported in BindingDB's records for doi:10.1021/jm0010466 (2001).
Where a SMILES comes first, the peptide text is derived from it.

Experiment: Binding affinity towards 23-nt RNA oligonucleotide from the 5'-untranslated region of the cholestery ester transfer protein (CETP)

Kd: 32 µM
Compound: CC(C)C[C@H](NC(=O)[C@H](CCCCN)NC(=O)[C@H](Cc1ccc(O)cc1)NC(=O)[C@@H](N)CCCCN)C(=O)N[C@@H](Cc1ccc(O)cc1)C(=O)N[C@@H](CCCCN)C(=O)N[C@@H](CS)C(N)=O (H-KYKLYKC-NH2)
